Reference: patent publication US10029994B2, “Isoxazole hydroxamic acid compounds as LpxC inhibitors” (priority 2014, dated 2018)

Columns and labels:
[1] = tested on: E. C. ATCC 25922; test: MIC, broth microdilution (CLSI); type: cell-based, Escherichia coli; details: Escherichia coli, ATCC25922, 20 h, broth microdilution, 35° C., 20 hours; read-out: E. C. ATCC 25922 MIC
Protocol: (§1) Bacterial isolates were cultivated from −70° C. frozen stocks by two consecutive overnight passages at 35° C. in ambient air on 5% blood agar (Remel, Lenexa, Kans.). Quality control strain, P. aeruginosa ATCC 27853, A. baumannii ATCC19606 and E. coli ATCC 25922 are from the American Type Culture Collection (ATCC; Rockville, Md.) and PAO1 was received from Dr. K. Poole.
(§2) Minimal Inhibitory Concentrations (MICs) were determined by the broth microdilution method in accordance with Clinical and Laboratories Institute (CLSI) guidelines (CLSI M100-S25, Performance Standards for Antimicrobial Susceptibility Testing; Twenty-fifth Informational Supplement). In brief, fresh bacterial overnight cultures were resuspended in sterile saline, adjusted to a 0.5 McFarland turbidity standard and then diluted 2000-fold in cation adjusted Mueller-Hinton Broth II (MHB; Remel BBL) to yield a final inoculum of approximately 5×10^5 colony-forming units (CFU)/mL. Two-fold serial dilutions of compounds were prepared in 100% dimethyl sulfoxide (DMSO) at 100-fold the highest final assay concentration; the resulting dilution series of compounds were diluted 1:10 with sterile water. Ten μl of the drug dilution series in 10% DMSO was transferred to microtiter wells and 90 μl of bacterial suspension was inoculated into the wells. For testing the ability of compounds to potentiate the activity of known antibiotics, the assay was modified as follows; known antibiotics were added to the bacterial inoculum at 1.1-fold the final assay concentration indicated in Table A. All inoculated microdilution trays were incubated in ambient air at 35° C. for 20 hours. Following incubation, assay plates were read in a microtiter plate reader at 600 nm and visually inspected to confirm the MIC endpoint well with the OD value. The lowest concentration of the compound that prevented visible growth was recorded as the MIC. Performance of the assay was monitored by testing ciprofloxacin against the laboratory quality control strain in accordance with guidelines of the CLSI.

[2] = target: T1, P. aeruginosa LpxC (Pseudomonas aeruginosa, UniProt P47205); test: P. aeruginosa LpxC Inhibition Assay (LC-MS/MS); type: biochemical; details: 1 nM P. aeruginosa LpxC, 30 min pre-incubation, 2 μM UDP-3-O-(R-3-hydroxydecanoyl)-GlcNAc, pH 7.5
T1 construct: made in house
T1 sequence (P47205 1-303): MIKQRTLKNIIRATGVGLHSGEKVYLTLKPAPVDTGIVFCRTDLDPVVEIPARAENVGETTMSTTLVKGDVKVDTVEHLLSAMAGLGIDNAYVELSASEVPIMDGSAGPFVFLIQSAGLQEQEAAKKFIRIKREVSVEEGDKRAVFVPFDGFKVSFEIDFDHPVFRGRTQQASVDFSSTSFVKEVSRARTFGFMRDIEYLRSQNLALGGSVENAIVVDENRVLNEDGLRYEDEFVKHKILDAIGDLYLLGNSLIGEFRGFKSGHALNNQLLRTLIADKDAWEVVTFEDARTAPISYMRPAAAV
Description: P. aeruginosa LpxC Inhibition Assay
The P. aeruginosa LpxC protein is produced according to the general method of Hyland et al (Journal of Bacteriology 1997 179, 2029-2037: Cloning, expression and purification of UDP-3-O-acyl-GlcNAc deacetylase from Pseudomonas aeruginosa: a metalloamidase of the lipid A biosynthesis pathway). The LC-MS/MS method for quantitation of LpxC product was developed using an Agilent 1200 Capillary HPLC system coupled to an Applied Biosystems MDS Sciex 4000QTRAP mass spectrometer. Both instruments are controlled using the Applied Biosystems MDS Sciex Analyst software. LpxC reaction product (UDP-3-O—(R-3-hydroxyacyl)-glucosamine) was produced by hydrolysis of LpxC substrate catalyzed by P.a. LpxC and purified using reversed phase chromatography on a Phenomenex Luna C18(2) 4.6×50 mm column. An LpxC product calibration curve was generated to evaluate the sensitivity and dynamic range of the LC-MS/MS method. Briefly, compounds are pre-incubated with 1 nM P. aeruginosa LpxC for 30 min. at room temperature. Reactions are initiated by the addition of 2 μM UDP-3-O—(R-3-hydroxydecanoyl)-GlcNAc. Reactions are conducted in a 384-well plate with a total volume of 50 μL in each well containing 50 mM Sodium phosphate pH 7.5, 0.005% Trition X-100 for 20 min at room temperature. After quenching with 1.8% HOAc (5 μL of a 20% HOAc added to each well), reaction mixtures are analyzed using the LC-MS/MS method and peak areas are transformed into product concentration using a LpxC product calibration curve. Total activity (0% inhibition control) is obtained from reactions with no inhibitors and 100% inhibition control is the background using quenched samples before reaction starts. For IC50 determinations, peak areas are converted to percent inhibition in Microsoft Excel. Percent inhibition values are plotted vs. log compound concentration using XLfit. Data is fit to the four-parameter logistic equation using the non-linear regression algorithm in XLfit to return the IC50 and hill slope values.

[3] = tested on: E. C. ATCC 29522; test: MIC in the presence of sub-inhibitory rifampicin (potentiation/synergy); type: cell-based, Escherichia coli; details: +2 μg/ml rifampicin (RIF); broth microdilution, 35° C., 20 hours
Protocol: as §1, §2

[4] = tested on: A. B. ATCC 19606; test: MIC, broth microdilution (CLSI); type: cell-based, Acinetobacter baumannii; details: Acinetobacter baumannii, ATCC19606; broth microdilution, 35° C., 20 hours; read-out: A. B. ATCC 19606 MIC
Protocol: as §1, §2

[5] = tested on: A. B. ATCC 19606; test: MIC in the presence of sub-inhibitory rifampicin (potentiation/synergy); type: cell-based, Acinetobacter baumannii; details: +2 μg/ml rifampicin (RIF); broth microdilution, 35° C., 20 hours
Protocol: as §1, §2

[6] = tested on: P. A. PAO1 NB52019; test: MIC, broth microdilution (CLSI); type: cell-based, Pseudomonas aeruginosa; details: Pseudomonas aeruginosa, PAO1; broth microdilution, 35° C., 20 hours; read-out: P. A. PAO1 NB52019 MIC
Protocol: as §1, §2

Row | MIC [1] [µg/mL] | IC50 [2] [nM] | E. C. ATCC 29522 (+2 μg/ml RIF) MIC [3] [µg/mL] | MIC [4] [µg/mL] | A. B. ATCC 19606 (+2 μg/ml RIF) MIC [5] [µg/mL] | MIC [6] [µg/mL] | SMILES
1 | 4 | < 1 | 0.125 | > 64 | 0.125 | 0.5 | CC(C)C#Cc1cc(CC[C@](C)(C(=O)NO)S(C)(=O)=O)no1 [Compound 1.6, (R)—N-hydroxy-2-methyl-4-(5-(3-methylbut-1-yn-1-yl)isoxazol-3-yl)-2-(methylsulfonyl)butanamide]
2 | 1 | < 1 | 0.125 | > 64 | 1 | 0.25 | C[C@@](CCc1cc(C#Cc2ccc([C@@H](O)CO)cc2)on1)(C(=O)NO)S(C)(=O)=O [Compound 2.8, (R)-4-(5-((4-((R)-1,2-dihydroxyethyl)phenyl)ethynyl)isoxazol-3-yl)-N-hydroxy-2-methyl-2-(methylsulfonyl)butanamide]
3 | ≤ 0.06 | < 1 | 0.06 | 64 | ≤0.06 | 0.25 | Cc1cc([C@H](O)[C@](C)(NCc2cc(C#Cc3ccccc3)on2)C(=O)NO)no1 [Compound 3.3, (2S,3R)—N,3-dihydroxy-2-methyl-3-(5-methylisoxazol-3-yl)-2-(((5-(phenylethynyl)isoxazol-3-yl)methyl)amino)propanamide]
4 | 8 | < 1 | 0.5 | > 64 | 0.5 | 0.5 | C[C@@](CCc1cc(/C=C(\F)C2CC2)on1)(C(=O)NO)S(C)(=O)=O [Compound 4.7, (R,Z)-4-(5-(2-cyclopropyl-2-fluorovinyl)isoxazol-3-yl)-N-hydroxy-2-methyl-2-(methylsulfonyl)butanamide]
5 | 8 | < 1 | 0.25 | > 64 | 0.25 | 0.5 | C[C@@](CCc1cc(C#CCCCF)on1)(C(=O)NO)S(C)(=O)=O [Compound 1.10, (R)-4-(5-(5-fluoropent-1-yn-1-yl)isoxazol-3-yl)-N-hydroxy-2-methyl-2-(methylsulfonyl)butanamide]
6 | 0.25 | < 1 | 0.125 | > 64 | 0.5 | 1 | C[C@@H](O)Cc1ccc(C#Cc2cc(CCC(C)(C(=O)NO)S(C)(=O)=O)no2)cc1 (stereo partly drawn) [Compound 2.5, N-hydroxy-4-(5-((4-((R)-2-hydroxypropyl)phenyl)ethynyl)isoxazol-3-yl)-2-methyl-2-(methylsulfonyl)butanamide]
7 | 0.5 | < 1 | 0.125 | > 64 | 1 | 0.25 | CO[C@H](CO)c1ccc(C#Cc2cc(CC[C@](C)(C(=O)NO)S(C)(=O)=O)no2)cc1 [Compound 2.6, (R)—N-hydroxy-4-(5-((4-((S)-2-hydroxy-1-methoxyethyl)phenyl)ethynyl)-isoxazol-3-yl)-2-methyl-2-(methylsulfonyl)butanamide]
8 | 1 | < 1 | ≤0.06 | > 64 | 0.125 | 0.5 | CC(NCc1cc(C#Cc2ccccc2)on1)(C(=O)NO)C(O)c1cc(CO)on1 (stereo not drawn) [Compound 3.4, N,3-dihydroxy-3-(5-(hydroxymethyl)isoxazol-3-yl)-2-methyl-2-(((5-(phenylethynyl)isoxazol-3-yl)methyl)amino)propanamide]
9 | 8 | < 1 | 2 | > 64 | 0.25 | 0.25 | CC(C)(C)C#Cc1cc(CC[C@](C)(C(=O)NO)S(C)(=O)=O)no1 [Compound 1.3, (R)-4-(5-(3,3-dimethylbut-1-yn-1-yl)isoxazol-3-yl)-N-hydroxy-2-methyl-2-(methylsulfonyl)butanamide]
10 | 1 | < 1 | 0.125 | > 64 | 4 | 0.5 | COC(CO)c1ccc(C#Cc2cc(CCC(C)(C(=O)NO)S(C)(=O)=O)no2)cc1 (stereo not drawn) [Compound 2.3, N-hydroxy-4-(5-((4-(2-hydroxy-1-methoxyethyl)phenyl)ethynyl)isoxazol-3-yl)-2-methyl-2-(methylsulfonyl)butanamide]
11 | 4 | < 1 | 0.5 | > 64 | 1 | 0.25 | C[C@@](CCc1cc(C2=CCCCC2)on1)(C(=O)NO)S(C)(=O)=O [Compound 4.8, (R)-4-(5-(cyclohex-1-en-1-yl)isoxazol-3-yl)-N-hydroxy-2-methyl-2-(methylsulfonyl)butanamide]
